Key:
S. pneumoniae D39V [1] = experiment: Bliss interaction score (quartile over a dose matrix) (fitness difference); higher = more antagonism (negative = synergy)
Method in brief: (§1)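 Fitness here means normalised growth, inferred for single drugs from the combination data. Growth was OD595 at entry into stationary phase, divided by the plate's robust no-drug mean and capped at 1. The Bliss score is observed minus expected fitness, with the expectation being the product, and its quartiles span technical, biological and donor/recipient replicates.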

S. aureus Newman [2] = experiment: as above
Method in brief: as §1

S. aureus DSM 20231 [3] = experiment: as above
Method in brief: as §1

B. subtilis 168 = experiment: as above
Method in brief: as §1

S. pneumoniae D39V [4] = experiment: fitness (endpoint OD595 vs no drug) (fraction); higher = more growth
Method in brief: (§2)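 Growth medium was TSB, LB Lennox or CY, and plates were kept at 37 °C. Inoculation was at OD595 0.01 in 384-well plates, at 30 µl per well or 55 µl for S. pneumoniae. OD595 was monitored every 30 min for 14 h and background-subtracted using the first reading. Fitness is the optical density on entering stationary phase divided by the robust mean of no-drug controls, with values capped at 1.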

S. aureus Newman [5] = experiment: as above
Method in brief: as §2

S. aureus DSM 20231 [6] = experiment: as above
Method in brief: as §2
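For Bliss interaction score (quartile over a dose matrix) in this document: first quartile when negative (synergy) and third quartile when positive (antagonism).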
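For fitness (endpoint OD595 vs no drug) in this document: OD595 on entry to stationary phase over no-drug wells; at most 1.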

O=C(O[C@@H]1Cc2c(O)cc(O)cc2O[C@@H]1c1cc(O)c(O)c(O)c1)c1cc(O)c(O)c(O)c1 [EGCG] + Cn1nnc(-c2ccc(-c3ccc(N4C[C@H](CO)OC4=O)cc3F)cn2)n1 [Tedizolid]
Conditions	Bliss interaction score
B. subtilis 168	0.0863
S. aureus DSM 20231 [3]	0.11
S. aureus Newman [2]	-0.0709
S. pneumoniae D39V [1]	-0.0687

fitness
Conditions	partner 0.03125 µg/mL	partner 0.0625 µg/mL	partner 0.125 µg/mL	partner 0.25 µg/mL	partner 0.5 µg/mL
S. aureus DSM 20231 [6], first compound 12.5 µg/mL	–	0.865	0.734	0.401	–
S. aureus DSM 20231 [6], first compound 25 µg/mL	–	0.762	0.783	0.569	–
S. aureus DSM 20231 [6], first compound 50 µg/mL	–	0.805	0.714	0.326	–
S. aureus Newman [5], first compound 12.5 µg/mL	–	0.735	0.673	0.329	–
S. aureus Newman [5], first compound 25 µg/mL	–	0.783	0.679	–	–
S. aureus Newman [5], first compound 50 µg/mL	–	0.745	0.653	–	–
S. pneumoniae D39V [4], first compound 12.5 µg/mL	0.913	0.925	–	0.308	0.194
S. pneumoniae D39V [4], first compound 25 µg/mL	0.974	0.94	0.718	0.328	0.107
S. pneumoniae D39V [4], first compound 50 µg/mL	0.993	0.959	0.791	–	0.262

COc1c(N2C[C@@H]3CCCN[C@@H]3C2)c(F)cc2c(=O)c(C(=O)O)cn(C3CC3)c12 [Moxifloxacin] + CN[C@H](CC(C)C)C(=O)N[C@H]1C(=O)N[C@@H](CC(N)=O)C(=O)N[C@H]2C(=O)N[C@H]3C(=O)N[C@H](C(=O)N[C@H](C(=O)O)c4cc(O)cc(O)c4-c4cc3ccc4O)[C@H](O)c3ccc(c(Cl)c3)Oc3cc2cc(c3O[C@@H]2O[C@H](CO)[C@@H](O)[C@H](O)[C@H]2O[C@H]2C[C@](C)(N)[C@H](O)[C@H](C)O2)Oc2ccc(cc2Cl)[C@H]1O [Vancomycin]
Conditions	Bliss interaction score
B. subtilis 168	0.031
S. aureus DSM 20231 [3]	-0.0583
S. aureus Newman [2]	-0.0617
S. pneumoniae D39V [1]	0.0942

Conditions	fitness
S. aureus DSM 20231 [6], first compound 0.0075 µg/mL, partner 0.1875 µg/mL	0.818
S. aureus DSM 20231 [6], first compound 0.0075 µg/mL, partner 0.375 µg/mL	0.854
S. aureus DSM 20231 [6], first compound 0.0075 µg/mL, partner 0.75 µg/mL	0.853
S. aureus DSM 20231 [6], first compound 0.015 µg/mL, partner 0.1875 µg/mL	0.745
S. aureus DSM 20231 [6], first compound 0.015 µg/mL, partner 0.375 µg/mL	0.761
S. aureus DSM 20231 [6], first compound 0.015 µg/mL, partner 0.75 µg/mL	0.84
S. aureus DSM 20231 [6], first compound 0.03 µg/mL, partner 0.1875 µg/mL	0.667
S. aureus DSM 20231 [6], first compound 0.03 µg/mL, partner 0.375 µg/mL	0.689
S. aureus DSM 20231 [6], first compound 0.03 µg/mL, partner 0.75 µg/mL	0.652
S. aureus Newman [5], first compound 0.0075 µg/mL, partner 0.1875 µg/mL	0.768
S. aureus Newman [5], first compound 0.0075 µg/mL, partner 0.375 µg/mL	0.75
S. aureus Newman [5], first compound 0.0075 µg/mL, partner 0.75 µg/mL	0.768
S. aureus Newman [5], first compound 0.015 µg/mL, partner 0.75 µg/mL	0.518
S. aureus Newman [5], first compound 0.03 µg/mL, partner 0.375 µg/mL	0.0717
S. aureus Newman [5], first compound 0.03 µg/mL, partner 0.75 µg/mL	0.0889
S. pneumoniae D39V [4], first compound 0.0037 µg/mL, partner 0.03125 µg/mL	0.881
S. pneumoniae D39V [4], first compound 0.005 µg/mL, partner 0.125 µg/mL	0.909
S. pneumoniae D39V [4], first compound 0.0075 µg/mL, partner 0.03125 µg/mL	0.908
S. pneumoniae D39V [4], first compound 0.0075 µg/mL, partner 0.0625 µg/mL	0.853
S. pneumoniae D39V [4], first compound 0.0075 µg/mL, partner 0.125 µg/mL	0.753
S. pneumoniae D39V [4], first compound 0.01 µg/mL, partner 0.125 µg/mL	0.92
S. pneumoniae D39V [4], first compound 0.015 µg/mL, partner 0.03125 µg/mL	0.897
S. pneumoniae D39V [4], first compound 0.015 µg/mL, partner 0.0625 µg/mL	0.848
S. pneumoniae D39V [4], first compound 0.015 µg/mL, partner 0.125 µg/mL	0.689
S. pneumoniae D39V [4], first compound 0.02 µg/mL, partner 0.125 µg/mL	0.913

fitness, S. aureus DSM 20231 [6], one replicate
Conditions	partner 0.1875 µg/mL	partner 0.375 µg/mL	partner 0.75 µg/mL
first compound 0.06 µg/mL	0.688	0.694	0.704
first compound 0.12 µg/mL	0.46	0.455	0.46

CCC[C@@H]1C[C@@H](C(=O)N[C@@H]([C@H]2O[C@H](SC)[C@H](O)[C@@H](O)[C@H]2O)[C@H](C)Cl)N(C)C1 [Clindamycin] + Cn1nnc(-c2ccc(-c3ccc(N4C[C@H](CO)OC4=O)cc3F)cn2)n1 [Tedizolid]
Conditions	Bliss interaction score
B. subtilis 168	0.134
S. aureus DSM 20231 [3]	-0.024
S. aureus Newman [2]	-0.0925
S. pneumoniae D39V [1]	0.115

fitness
Conditions	partner 0.03125 µg/mL	partner 0.0625 µg/mL	partner 0.125 µg/mL	partner 0.25 µg/mL	partner 0.5 µg/mL
S. aureus DSM 20231 [6], first compound 0.0312 µg/mL	–	–	–	0.314	–
S. aureus DSM 20231 [6], first compound 0.0625 µg/mL	–	0.0876	0.0753	0.0709	–
S. aureus DSM 20231 [6], first compound 0.125 µg/mL	–	0.0391	0.0406	0.0164	–
S. aureus Newman [5], first compound 0.125 µg/mL	–	0.0736	0.0453	0.0444	–
S. pneumoniae D39V [4], first compound 0.0125 µg/mL	–	–	0.551	0.434	0.201
S. pneumoniae D39V [4], first compound 0.015 µg/mL	0.901	0.918	0.778	–	–
S. pneumoniae D39V [4], first compound 0.025 µg/mL	–	–	0.375	0.33	0.149
S. pneumoniae D39V [4], first compound 0.03 µg/mL	0.781	0.814	0.721	–	–
S. pneumoniae D39V [4], first compound 0.05 µg/mL	–	–	0.224	0.166	0.097
S. pneumoniae D39V [4], first compound 0.06 µg/mL	0.641	0.646	0.605	–	–

CN[C@H](CC(C)C)C(=O)N[C@H]1C(=O)N[C@@H](CC(N)=O)C(=O)N[C@H]2C(=O)N[C@H]3C(=O)N[C@H](C(=O)N[C@H](C(=O)O)c4cc(O)cc(O)c4-c4cc3ccc4O)[C@H](O)c3ccc(c(Cl)c3)Oc3cc2cc(c3O[C@@H]2O[C@H](CO)[C@@H](O)[C@H](O)[C@H]2O[C@H]2C[C@](C)(N)[C@H](O)[C@H](C)O2)Oc2ccc(cc2Cl)[C@H]1O [Vancomycin] + CC1=C\[C@@H](O)CC(=O)Cc2nc(co2)C(=O)N2CCC=C2C(=O)O[C@H](C(C)C)[C@H](C)/C=C/C(=O)NC\C=C\1 [Virginiamycin M1]
Conditions	Bliss interaction score
B. subtilis 168	-0.0585
S. aureus DSM 20231 [3]	0.0837
S. aureus Newman [2]	0.0634
S. pneumoniae D39V [1]	0.128

Conditions	fitness
S. aureus DSM 20231 [6], first compound 0.1875 µg/mL, partner 0.0625 µg/mL	≥ 1
S. aureus DSM 20231 [6], first compound 0.1875 µg/mL, partner 0.125 µg/mL	≥ 1
S. aureus DSM 20231 [6], first compound 0.1875 µg/mL, partner 0.25 µg/mL	0.998
S. aureus DSM 20231 [6], first compound 0.375 µg/mL, partner 0.0625 µg/mL	≥ 1
S. aureus DSM 20231 [6], first compound 0.375 µg/mL, partner 0.125 µg/mL	≥ 1
S. aureus DSM 20231 [6], first compound 0.375 µg/mL, partner 0.25 µg/mL	≥ 1
S. aureus DSM 20231 [6], first compound 0.75 µg/mL, partner 0.0625 µg/mL	≥ 1
S. aureus DSM 20231 [6], first compound 0.75 µg/mL, partner 0.125 µg/mL	≥ 1
S. aureus DSM 20231 [6], first compound 0.75 µg/mL, partner 0.25 µg/mL	≥ 1
S. aureus Newman [5], first compound 0.1875 µg/mL, partner 0.0625 µg/mL	0.991
S. aureus Newman [5], first compound 0.1875 µg/mL, partner 0.125 µg/mL	0.994
S. aureus Newman [5], first compound 0.1875 µg/mL, partner 0.25 µg/mL	0.99
S. aureus Newman [5], first compound 0.375 µg/mL, partner 0.0625 µg/mL	≥ 1
S. aureus Newman [5], first compound 0.375 µg/mL, partner 0.125 µg/mL	0.988
S. aureus Newman [5], first compound 0.375 µg/mL, partner 0.25 µg/mL	0.977
S. aureus Newman [5], first compound 0.75 µg/mL, partner 0.0625 µg/mL	≥ 1
S. aureus Newman [5], first compound 0.75 µg/mL, partner 0.125 µg/mL	0.995
S. aureus Newman [5], first compound 0.75 µg/mL, partner 0.25 µg/mL	0.962
S. pneumoniae D39V [4], first compound 0.03125 µg/mL, partner 0.5 µg/mL	≥ 1
S. pneumoniae D39V [4], first compound 0.03125 µg/mL, partner 1 µg/mL	≥ 1
S. pneumoniae D39V [4], first compound 0.03125 µg/mL, partner 2 µg/mL	0.982
S. pneumoniae D39V [4], first compound 0.0625 µg/mL, partner 0.5 µg/mL	0.982
S. pneumoniae D39V [4], first compound 0.0625 µg/mL, partner 1 µg/mL	0.97
S. pneumoniae D39V [4], first compound 0.0625 µg/mL, partner 2 µg/mL	0.971
S. pneumoniae D39V [4], first compound 0.125 µg/mL, partner 0.5 µg/mL	0.988
S. pneumoniae D39V [4], first compound 0.125 µg/mL, partner 1 µg/mL	0.939
S. pneumoniae D39V [4], first compound 0.125 µg/mL, partner 2 µg/mL	0.945
S. pneumoniae D39V [4], first compound 0.25 µg/mL, partner 2 µg/mL	0.881

fitness, one replicate
Conditions	partner 0.15 µg/mL	partner 0.3 µg/mL	partner 0.5 µg/mL	partner 1 µg/mL	partner 2 µg/mL
S. aureus DSM 20231 [6], first compound 0.1875 µg/mL	–	–	0.766	0.687	–
S. aureus DSM 20231 [6], first compound 0.375 µg/mL	–	–	0.727	0.733	–
S. aureus DSM 20231 [6], first compound 0.75 µg/mL	–	–	0.795	0.791	–
S. aureus Newman [5], first compound 0.1875 µg/mL	–	–	0.913	0.98	0.883
S. aureus Newman [5], first compound 0.375 µg/mL	–	–	0.887	0.97	0.861
S. aureus Newman [5], first compound 0.75 µg/mL	–	–	0.815	0.93	0.903
S. pneumoniae D39V [4], first compound 0.125 µg/mL	≥ 1	≥ 1	–	–	–
S. pneumoniae D39V [4], first compound 0.25 µg/mL	0.946	0.993	0.873	0.681	–
S. pneumoniae D39V [4], first compound 0.5 µg/mL	0.355	0.71	0.366	0.0772	–
